# Experimental data taken from paper PMC7216467, “Evaluation of neuroprotective and anti-amnesic effects of Elaeagnus umbellata Thunb. On scopolamine-induced memory impairment in mice” (BMC Complementary Medicine and Therapies, 2020).
# Columns and labels:
# ABTS scavenging assay = assay: ABTS scavenging assay
# Method: About 300 μL compounds working dilutions and 3.0 mL ABTS solutions were mixed and incubated for 6 min. Finally the absorbance was measured via UV spectrophotometer. Ascorbic acid was used as positive control. % ABTS scavenging potential was measured using eq. 4.
# DPPH scavenging assay = assay: DPPH scavenging assay
# Method: About 24 mg, DPPH was dissolved in 100 mL methanol. Compounds solutions (1 mg/mL) were also prepared in methanol. […] About 0.1 mL of each working dilution was mixed with DPPH (3.0 mL) and incubated at 25 °C for 30 min. […] Ascorbic acid was used as a standard.
# [1] = target: T1, Acetyl cholinesterase (Electron-eel Type, VI-S) (Electrophorus electricus, UniProt O42275); assay: biochemical; type: biochemical; settings: for IC50: linear regression, read-out: AChE IC50 (converted)
# T1 construct: purchased Sigma-Aldrich, Germany
# T1 sequence (O42275 24-633): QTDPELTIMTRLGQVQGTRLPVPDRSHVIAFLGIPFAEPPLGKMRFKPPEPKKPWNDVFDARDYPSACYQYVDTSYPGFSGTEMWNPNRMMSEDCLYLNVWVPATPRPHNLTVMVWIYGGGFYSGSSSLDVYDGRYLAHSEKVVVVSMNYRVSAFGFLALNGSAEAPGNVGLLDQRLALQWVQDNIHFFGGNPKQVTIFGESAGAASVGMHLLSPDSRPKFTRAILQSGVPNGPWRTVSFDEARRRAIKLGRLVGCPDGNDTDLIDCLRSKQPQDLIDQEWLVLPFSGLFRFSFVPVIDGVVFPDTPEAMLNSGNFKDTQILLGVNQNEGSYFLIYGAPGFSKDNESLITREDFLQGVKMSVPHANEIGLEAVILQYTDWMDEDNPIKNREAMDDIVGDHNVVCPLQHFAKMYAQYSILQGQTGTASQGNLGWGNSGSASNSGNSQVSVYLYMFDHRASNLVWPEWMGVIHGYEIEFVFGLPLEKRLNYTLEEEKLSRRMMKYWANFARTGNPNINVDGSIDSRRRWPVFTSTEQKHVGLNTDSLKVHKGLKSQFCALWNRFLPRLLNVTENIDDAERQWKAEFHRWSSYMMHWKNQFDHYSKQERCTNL
# Method: Ellman assay was used to evaluate E. umbellata fruit extracts and isolated compounds for their anticholinesterase potentials. About 205 μL extract/compound solutions and 5 μL of AChE (0.03 U/mL)/BChE (0.01 U/mL) along with catalyst DTNB (5 μL) were taken in a cuvette and kept at 30 °C in hot water bath for 15 min. […] As a negative control solution all the above mentioned components except extracts and isolated compounds were mixed in the mentioned order.
# V is inhibitor dependent rate of reaction while, Vmax is inhibitor independent rate of reaction.
structure (smiles),measurement,setting,value
"O=C(O)c1cc(O)c(O)c(O)c1 [Compound-III, Gallic acid]",ABTS IC50,ABTS scavenging assay,54 µg/mL
same,% ABTS Scavenging Mean ± SEM,ABTS scavenging assay; 31.05 µg/mL,43±1.3 %
same,% ABTS Scavenging Mean ± SEM,ABTS scavenging assay; 62.5 µg/mL,48±0.4 %
same,% ABTS Scavenging Mean ± SEM,ABTS scavenging assay; 125 µg/mL,50±1.5 %
same,% ABTS Scavenging Mean ± SEM,ABTS scavenging assay; 250 µg/mL,54±1.1 %
same,% ABTS Scavenging Mean ± SEM,ABTS scavenging assay; 500 µg/mL,60±0.5 %
same,% ABTS Scavenging Mean ± SEM,ABTS scavenging assay; 1000 µg/mL,65±2.1 %
same,DPPH IC50,DPPH scavenging assay,52 µg/mL
same,% DPPH Scavenging Mean ± SEM,DPPH scavenging assay; 31.05 µg/mL,43±1.4 %
same,% DPPH Scavenging Mean ± SEM,DPPH scavenging assay; 62.5 µg/mL,48±0.5 %
same,% DPPH Scavenging Mean ± SEM,DPPH scavenging assay; 125 µg/mL,50±1.2 %
same,% DPPH Scavenging Mean ± SEM,DPPH scavenging assay; 250 µg/mL,59±1.5 %
same,% DPPH Scavenging Mean ± SEM,DPPH scavenging assay; 500 µg/mL,70±1.1 %
same,% DPPH Scavenging Mean ± SEM,DPPH scavenging assay; 1000 µg/mL,76±0.5 %
same,% AChE Mean ± SEM,[1]; 31.05 µg/mL,39±0.5 %
same,% AChE Mean ± SEM,[1]; 62.5 µg/mL,43±1.1 %
same,% AChE Mean ± SEM,[1]; 125 µg/mL,49±1.4 %
same,% AChE Mean ± SEM,[1]; 250 µg/mL,55±0.3 %
same,% AChE Mean ± SEM,[1]; 500 µg/mL,62±1.2 %
same,% AChE Mean ± SEM,[1]; 1000 µg/mL,76±2.1 %
same,IC50,[1],265 µM
"O=c1oc2c(O)c(O)cc3c(=O)oc4c(O)c(O)cc1c4c23 [Compound-II, Ellagic acid]",ABTS IC50,ABTS scavenging assay,44 µg/mL
same,% ABTS Scavenging Mean ± SEM,ABTS scavenging assay; 31.05 µg/mL,41±0.5 %
same,% ABTS Scavenging Mean ± SEM,ABTS scavenging assay; 62.5 µg/mL,49±1.0 %
same,% ABTS Scavenging Mean ± SEM,ABTS scavenging assay; 125 µg/mL,57±1.0 %
same,% ABTS Scavenging Mean ± SEM,ABTS scavenging assay; 250 µg/mL,64±0.3 %
same,% ABTS Scavenging Mean ± SEM,ABTS scavenging assay; 500 µg/mL,65±0.4 %
same,% ABTS Scavenging Mean ± SEM,ABTS scavenging assay; 1000 µg/mL,69±1.0 %
same,DPPH IC50,DPPH scavenging assay,39 µg/mL
same,% DPPH Scavenging Mean ± SEM,DPPH scavenging assay; 31.05 µg/mL,44±1.4 %
same,% DPPH Scavenging Mean ± SEM,DPPH scavenging assay; 62.5 µg/mL,57±0.5 %
same,% DPPH Scavenging Mean ± SEM,DPPH scavenging assay; 125 µg/mL,59±0.4 %
same,% DPPH Scavenging Mean ± SEM,DPPH scavenging assay; 250 µg/mL,60±1.2 %
same,% DPPH Scavenging Mean ± SEM,DPPH scavenging assay; 500 µg/mL,70±0.5 %
same,% DPPH Scavenging Mean ± SEM,DPPH scavenging assay; 1000 µg/mL,77±1.1 %
same,% AChE Mean ± SEM,[1]; 31.05 µg/mL,41±0.3 %
same,% AChE Mean ± SEM,[1]; 62.5 µg/mL,48±0.5 %
same,% AChE Mean ± SEM,[1]; 125 µg/mL,52±0.4 %
same,% AChE Mean ± SEM,[1]; 250 µg/mL,68±0.1 %
same,% AChE Mean ± SEM,[1]; 500 µg/mL,75±0.4 %
same,% AChE Mean ± SEM,[1]; 1000 µg/mL,81±0.5 %
same,IC50,[1],195 µM
"Oc1cc(O)cc(O)c1 [Compound-IV, Phloroglucinol]",ABTS IC50,ABTS scavenging assay,112 µg/mL
same,% ABTS Scavenging Mean ± SEM,ABTS scavenging assay; 31.05 µg/mL,25±1.0 %
same,% ABTS Scavenging Mean ± SEM,ABTS scavenging assay; 62.5 µg/mL,33±0.5 %
same,% ABTS Scavenging Mean ± SEM,ABTS scavenging assay; 125 µg/mL,39±1.2 %
same,% ABTS Scavenging Mean ± SEM,ABTS scavenging assay; 250 µg/mL,45±1.0 %
same,% ABTS Scavenging Mean ± SEM,ABTS scavenging assay; 500 µg/mL,51±0.5 %
same,% ABTS Scavenging Mean ± SEM,ABTS scavenging assay; 1000 µg/mL,54±1.1 %
same,DPPH IC50,DPPH scavenging assay,105 µg/mL
same,% DPPH Scavenging Mean ± SEM,DPPH scavenging assay; 31.05 µg/mL,32±0.5 %
same,% DPPH Scavenging Mean ± SEM,DPPH scavenging assay; 62.5 µg/mL,36±1.1 %
same,% DPPH Scavenging Mean ± SEM,DPPH scavenging assay; 125 µg/mL,40±0.5 %
same,% DPPH Scavenging Mean ± SEM,DPPH scavenging assay; 250 µg/mL,51±1.0 %
same,% DPPH Scavenging Mean ± SEM,DPPH scavenging assay; 500 µg/mL,57±1.0 %
same,% DPPH Scavenging Mean ± SEM,DPPH scavenging assay; 1000 µg/mL,67±0.4 %
same,% AChE Mean ± SEM,[1]; 31.05 µg/mL,21±1.5 %
same,% AChE Mean ± SEM,[1]; 62.5 µg/mL,29±2.1 %
same,% AChE Mean ± SEM,[1]; 125 µg/mL,34±1.5 %
same,% AChE Mean ± SEM,[1]; 250 µg/mL,40±0.5 %
same,% AChE Mean ± SEM,[1]; 500 µg/mL,52±1.6 %
same,% AChE Mean ± SEM,[1]; 1000 µg/mL,66±1.2 %
same,IC50,[1],730 µM
"O=C1O[C@H]([C@@H](O)CO)C(O)=C1O [Ascorbic acid, reference compound]",ABTS IC50,ABTS scavenging assay,32 µg/mL
same,% ABTS Scavenging Mean ± SEM,ABTS scavenging assay; 31.05 µg/mL,56±1.1%
same,% ABTS Scavenging Mean ± SEM,ABTS scavenging assay; 62.5 µg/mL,64±1.0%
same,% ABTS Scavenging Mean ± SEM,ABTS scavenging assay; 125 µg/mL,70±0.5%
same,% ABTS Scavenging Mean ± SEM,ABTS scavenging assay; 250 µg/mL,78±0.5%
same,% ABTS Scavenging Mean ± SEM,ABTS scavenging assay; 500 µg/mL,84±1.1%
same,% ABTS Scavenging Mean ± SEM,ABTS scavenging assay; 1000 µg/mL,90±0.5%
same,DPPH IC50,DPPH scavenging assay,29 µg/mL
same,% DPPH Scavenging Mean ± SEM,DPPH scavenging assay; 31.05 µg/mL,69±0.4%
same,% DPPH Scavenging Mean ± SEM,DPPH scavenging assay; 62.5 µg/mL,73±0.5%
same,% DPPH Scavenging Mean ± SEM,DPPH scavenging assay; 125 µg/mL,77±0.4%
same,% DPPH Scavenging Mean ± SEM,DPPH scavenging assay; 250 µg/mL,80±0.4%
same,% DPPH Scavenging Mean ± SEM,DPPH scavenging assay; 500 µg/mL,86±1.0%
same,% DPPH Scavenging Mean ± SEM,DPPH scavenging assay; 1000 µg/mL,91±0.5%
